# pIC50: −log10 of the molar value. Structures can show the parent of a compound that is named as a salt. Where two headings read alike, the source gives them in different places.
# Assays:
# rabbit platelets = assay: TXA2 release from rabbit platelets; format: cell-based; settings: Oryctolagus cuniculus, Platelet, 8 min, washed rabbit platelets, 37° C., read-out: TXA2 release suppressing action: amount necessary for 50% inhibition of TXA2 release
# Procedure: TXA2 release from rabbit platelets Blood was taken from the carotid artery of normal rabbit using ethylenediaminetetraacetic acid (EDTA; 77 mM EDTA, 1/10 vol). The blood was centrifuged at 1800 rpm for 8 minutes and platelet rich plasma in the supernatant was recovered, which was then centrifuged at 3200 rpm for 8 minutes. The sediment (platelet) was washed with Tyrode-HEPES-EDTA buffer and centrifuged at 3200 rpm for 8 minutes. The sediment was suspended in Tyrode-HEPES buffer to prepare washed platelets (5×10^8 platelets/ml). 100% DMSO or a reagent (Compound A, 1.5 μl) was added to the washed platelets (270 μl) and the mixture was heated at 37° C. for 2 minutes. Then, collagen (10 μg/ml) and 1 mM Ca^2+ (or 1 mM Ca^2+ alone when investigating release from unstimulated platelets) were added and the experiment was started. After heating at 37° C. for 8 minutes, 10^-3 M indomethacin was added and the cuvette was placed in ice to stop the reaction. After centrifugation at 10,000 rpm for 10 minutes, the supernatant was taken and stored at -20° C. until used for the TXA2 determination. The TXA2 amount in the above Experimental Examples was measured as TXB2 (stable compound thereof) amount by the EIA method using TXB2 assay kit (manufactured by Amersham). | *1: amount necessary for 50% inhibition of TXA2 release (μM)
# TXA2 synthetase [1] = target: T1, TXA2 synthetase (Oryctolagus cuniculus, UniProt G1TAZ9); assay: Inhibition of TXA2 synthetase using rabbit platelet microsome; format: biochemical; settings: PGH2 5 nmol, 22° C., 3 minutes, measured as TXB2 by EIA, read-out: TXA2 synthetase inhibitory action: amount necessary for 50% inhibition of TXA2 synthesis
# T1 construct: to prepare a microsomal fraction; from tissue; host or cells: rabbit blood platelets, microsomal fraction
# T1 sequence (G1TAZ9 1-530): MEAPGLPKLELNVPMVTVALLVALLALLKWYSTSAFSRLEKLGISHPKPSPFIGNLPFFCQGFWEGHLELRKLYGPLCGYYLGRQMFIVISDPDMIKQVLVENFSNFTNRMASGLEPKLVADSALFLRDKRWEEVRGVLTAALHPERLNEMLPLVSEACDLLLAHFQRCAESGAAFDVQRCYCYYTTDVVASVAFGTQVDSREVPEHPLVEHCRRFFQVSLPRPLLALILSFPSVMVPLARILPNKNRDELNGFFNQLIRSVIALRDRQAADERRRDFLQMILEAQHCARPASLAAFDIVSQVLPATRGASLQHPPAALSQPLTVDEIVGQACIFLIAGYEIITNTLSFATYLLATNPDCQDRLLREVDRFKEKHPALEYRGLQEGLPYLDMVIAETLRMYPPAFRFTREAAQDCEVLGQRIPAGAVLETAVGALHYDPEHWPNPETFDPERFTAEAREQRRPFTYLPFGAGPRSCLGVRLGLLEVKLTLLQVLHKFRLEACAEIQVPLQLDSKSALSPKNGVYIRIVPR
# Procedure: Inhibition of TXA2 synthetase using rabbit platelet microsome
# Blood was taken from the carotid artery of normal rabbit, using EDTA (77 mM EDTA, 1/10 vol). The blood was centrifuged at 1300 rpm for 10 minutes and platelet rich plasma in the supernatant was recovered, which was centrifuged at 3400 rpm for 15 minutes. The sediment was washed with physiological saline (original volume) and centrifuged at 3400 rpm for 15 minutes. Then, 0.05M Tris-HCl buffer (1 mM EDTA, pH 7.5, 3-fold weight of the wet weight of platelets) was added to the sediment and the mixture was homogenated (2 minutes, full speed) using polytron. The homogenate was centrifuged at 8300 rpm for 15 minutes (Tomy RD-20III, No. 3N) and the supernatant was centrifuged at […] for 1 hour (Beckman TL-100, TLA100.3). The sediment was suspended in 0.05M Tris-HCl buffer (1 mM EDTA, pH 7.5, one-third weight of the wet weight of platelets) to prepare a microsomal fraction. The fraction was stored at -80° C. until used for the experiment.
# 0.05M Tris-HCl buffer (pH 7.5, 890 μl), 100 μl of the above-mentionedmicrosome (85 μg protein) and 100% DMSO or the reagent (Compound A, 5 μl) were added and the mixture was preincubated at 22° C. for 3 minutes. […]
# The TXA2 amount in the above Experimental Examples was measured as TXB2 (stable compound thereof) amount by the EIA method using TXB2 assay kit (manufactured by Amersham). […]
# TXA2 synthetase [2] = target: T2, TXA2 synthetase (Homo sapiens, UniProt P24557); assay: inhibition of TXA2 synthetase by the use of human platelet microsome; format: biochemical; settings: read-out: IC50 (amount necessary to inhibit 50% of TXA2 synthesis) of TXA2 synthetase inhibitory action
# T2 construct: human platelet microsome was used; from tissue; host or cells: human blood platelets, microsomal fraction
# T2 sequence (P24557 1-533): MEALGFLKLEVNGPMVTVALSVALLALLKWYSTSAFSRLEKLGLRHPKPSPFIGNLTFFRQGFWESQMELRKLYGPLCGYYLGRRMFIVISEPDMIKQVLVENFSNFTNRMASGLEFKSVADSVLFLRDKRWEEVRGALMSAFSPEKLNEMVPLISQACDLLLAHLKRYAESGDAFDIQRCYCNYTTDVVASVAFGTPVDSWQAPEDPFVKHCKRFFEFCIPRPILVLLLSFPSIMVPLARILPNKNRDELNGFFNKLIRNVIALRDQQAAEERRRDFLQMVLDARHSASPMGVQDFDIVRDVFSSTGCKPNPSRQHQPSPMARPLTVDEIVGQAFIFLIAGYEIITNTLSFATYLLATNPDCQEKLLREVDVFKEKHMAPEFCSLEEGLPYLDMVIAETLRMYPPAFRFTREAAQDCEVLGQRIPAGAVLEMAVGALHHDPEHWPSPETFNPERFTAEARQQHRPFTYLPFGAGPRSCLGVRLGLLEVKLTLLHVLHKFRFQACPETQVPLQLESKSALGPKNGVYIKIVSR
# Procedure: The TXA2 amount in the above Experimental Examples was measured as TXB2 (stable compound thereof) amount by the EIA method using TXB2 assay kit (manufactured by Amersham). inhibition of TXA2 synthetase by the use of human platelet microsome In the same manner as in Experimental Example 2 except that human platelet microsome was used instead of rabbit platelet microsome, the experiment was performed. Compound A, Compound B and Compound C were used as reagents.
# acute toxicity in rats = settings: rat, in vivo, po, orally administered
# acute toxicity in dogs = settings: dog, in vivo, po, orally administered
structure (smiles),measurement,setting,value
"Cl.O=c1[nH]nc(OCCCc2ccc(Cl)cc2)c(NCc2cccnc2)c1Br [Compound A, 4-bromo-6-[3-(4-chlorophenyl)propoxy]-5-(3-pyridylmethylamino)-3(2H)-pyridazinone hydrochloride]",pIC50,"rabbit platelets; not stimulated, 1 mM Ca2+ alone",6.00
same,pIC50,"rabbit platelets; stimulated with collagen (10 μg/ml), 1 mM Ca2+",8.05
same,pIC50,TXA2 synthetase [1],7.74
same,pIC50,TXA2 synthetase [2],8.00
same,LD50,acute toxicity in rats,≥ 2000 mg/kg
same,LD50,acute toxicity in dogs,≥ 2000 mg/kg
"O=c1[nH]nc(OCC[C@H](O)c2ccc(Cl)cc2)c(NCc2cccnc2)c1Br [Compound B, 4-bromo-6-[(3S)-(4-chlorophenyl)-3-hydroxypropoxy]-5-(3-pyridylmethylamino)-3(2H)-pyridazinone hydrochloride]",pIC50,TXA2 synthetase [2],7.70
"O=c1[nH]nc(OCC[C@@H](O)c2ccc(Cl)cc2)c(NCc2cccnc2)c1Br [Compound C, 4-bromo-6-[(3R)-(4-chlorophenyl)-3-hydroxypropoxy]-5-(3-pyridylmethylamino)-3(2H)-pyridazinone hydrochloride]",pIC50,TXA2 synthetase [2],7.52

# — patent US5798357A, “Agent for prophylaxis and treatment of thromboxane A2 -mediated diseases” (The Green Cross Corporation, priority 1994, dated 1998)
